Patent US20140073801A1, “PYRROLIDINE DERIVATIVES AS SELECTIVE GLYCOSIDASE INHIBITORS AND USES THEREOF” (Summit Corporation Plc, priority 2011, published 2014)

How the values were obtained:
human OGA [1] = molecular target: T1, human OGA (Homo sapiens, UniProt O60502); assay: Determination of IC50 values for inhibition of human OGA; assay type: biochemical
T1 construct: made in house
T1 sequence (O60502 1-916): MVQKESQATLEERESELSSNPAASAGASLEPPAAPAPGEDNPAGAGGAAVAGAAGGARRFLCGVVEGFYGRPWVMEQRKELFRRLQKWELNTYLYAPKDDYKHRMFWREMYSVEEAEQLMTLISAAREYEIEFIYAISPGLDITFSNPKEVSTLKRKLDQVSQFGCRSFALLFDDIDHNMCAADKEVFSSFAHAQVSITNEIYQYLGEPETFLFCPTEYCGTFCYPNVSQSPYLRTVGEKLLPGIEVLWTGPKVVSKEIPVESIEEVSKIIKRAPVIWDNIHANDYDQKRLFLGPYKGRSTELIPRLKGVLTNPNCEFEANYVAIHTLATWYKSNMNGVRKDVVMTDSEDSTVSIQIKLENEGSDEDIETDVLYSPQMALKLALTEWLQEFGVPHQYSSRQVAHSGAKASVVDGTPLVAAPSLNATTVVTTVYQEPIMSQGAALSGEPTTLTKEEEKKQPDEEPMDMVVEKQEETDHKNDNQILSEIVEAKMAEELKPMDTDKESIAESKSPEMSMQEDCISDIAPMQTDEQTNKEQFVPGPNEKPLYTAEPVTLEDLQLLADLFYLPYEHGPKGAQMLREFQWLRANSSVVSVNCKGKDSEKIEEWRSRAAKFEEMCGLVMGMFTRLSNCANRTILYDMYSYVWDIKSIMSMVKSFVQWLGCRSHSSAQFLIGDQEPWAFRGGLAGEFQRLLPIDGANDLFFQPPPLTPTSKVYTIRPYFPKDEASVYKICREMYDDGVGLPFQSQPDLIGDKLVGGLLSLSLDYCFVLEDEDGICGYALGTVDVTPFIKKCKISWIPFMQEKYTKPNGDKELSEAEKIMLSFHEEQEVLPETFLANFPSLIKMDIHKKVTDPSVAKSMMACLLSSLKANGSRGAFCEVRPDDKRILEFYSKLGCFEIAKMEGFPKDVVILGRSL
Procedure: Inhibitors identified from the screen described in Example 1 were evaluated for IC50 using a procedure adapted from Biochem. J. 2009, 420, 221-227. IC50 determination was carried out using a range of inhibitor concentrations from 300 μM to 0.003 μM or 100 μM to 0.001 μM. IC50 values were calculated using XLFit 4.

[2] = tested on: human β-hexosaminidase [human placenta] (HexA/B); assay: Determination of IC50 values for inhibition of human β-hexosaminidase; assay type: biochemical; details: ratio
Procedure: (§1) Inhibitors identified from the screen described in Example 1 were evaluated for IC50 against human β-hexosaminidase [human placenta, Sigma-Aldrich] using a range of inhibitor concentrations from 300 μM to 0.003 μM or 100 μM to 0.001 μM and the following reaction conditions:
(§2) Reactions were carried out at room temperature for thirty minutes and then quenched through the addition of 150 μl 0.5M Na2CO3. Fluorescence readings were taken at excitation wavelength 360 nm and emission wavelength 450 nm. IC50 values were calculated using XLFit 4. The selectivity ratio for inhibition of human O-GlcNAcase over human β-hexosaminidase is defined here as:
(§3) IC50(human β-hexosaminidase)/IC50(Human OGA)

[3] = molecular target: T2, human β-hexosaminidase [human placenta] (HexA/B); assay: as above; assay type: biochemical; details: human β-hexosaminidase, human placenta; room temperature, thirty minutes
T2 construct: other: human β-hexosaminidase, human placenta; room temperature, thirty minutes
Procedure: as §1, §2, §3

[4] = tested on: O-GlcNAc modified proteins in PC-12 cells or SH-SY5Y cells; assay: Western blot analyses of O-GlcNAc modified proteins in cells; assay type: cell-based; details: western blot, cells dosed 4 hours at 37° C.; cell line not given
Procedure: PC-12 cells or SH-SY5Y cells were dosed with the test compound or vehicle control at 37° C. for 4 hours. Once the incubation was completed the media was removed and cells were lysed. Extracted protein was then used for Western blot analysis using standard molecular biology techniques. The resulting membrane was probed with antibodies specific for tau phosphorylation sites (pSer396, pSer422, pThr231, pSer262) or with antibodies specific for O-GlcNAcylation sites (RL-2 or CTD110.6). The primary antibodies were visualised using appropriate secondary conjugated with the fluorophores Alexa 532 or Alexa 488. Actin was visualised using a FITC conjugated primary antibody. Relative quantification was measured in relation to the actin signal using Image lab software (BRL). Marked increases in O-GlcNAcylated proteins within the cells were observed as compared to controls when cells were dosed with test compound.

human OGA [5] = molecular target: T1, human OGA; assay: Determination of Ki values for inhibition of human OGA (4MU-GlcNAc substrate); assay type: biochemical; details: 2 nM human OGA, McIlvaine buffer pH 7.4, one hour
Procedure: Enzymatic reactions were carried out in McIlvaine buffer (0.2M Na2PO4, 0.1M citric acid; pH 7.4) using 2 nM human OGA and 4MU-GlcNAc as substrate in the presence of inhibitor. For the Ki of AXX inhibitor concentrations were 0, 20, 40, 80, 160 and 320 nM [for the Ki determination of other compounds either the same concentrations or similar concentrations were used] and 4MU-GlcNAc concentrations were 50, 100, 200, 400, 800, 1600, and 3200 μM. Reactions were left for one hour. […] Modes of inhibition were determined by Lineweaver-Burke analysis and Ki values were determined using GraphPad 5 Prism non-linear regression analysis.

Compound	IC50 (human OGA [1]) [nM]	Selectivity: IC50(human β-hexosaminidase)/IC50(Human OGA) [2]	IC50 [3] [µM]	EC50 [4] [nM]	Ki (human OGA [5]) [nM]
CCN1[C@H](CC(=O)NC)[C@H](O)[C@H](O)[C@H]1CO [Compound A019, 2-((2R,3S,4R,5R)-1-ethyl-3,4-dihydroxy-5-(hydroxymethyl)pyrrolidin-2-yl)-N-methylacetamide]	69	>4366	> 300	1900	–
CNC(=O)C[C@@H]1[C@H](O)[C@H](O)[C@@H](CO)N1CCCCCNS(=O)(=O)c1ccc(-c2ccccc2)cc1 [Compound A066, 2-((2R,3S,4R,5R)-1-(5-([1,1′-biphenyl]-4-ylsulfonamido)pentyl)-3,4-dihydroxy-5-(hydroxymethyl)pyrrolidin-2-yl)-N-methylacetamide]	< 3	>3633	10.9	20	3
CCCCCCN1[C@H](CO)[C@@H](O)[C@H](O)[C@H]1CC(=O)NCCC [Compound A055, 2-((2R,3R,4R,5R)-1-hexyl-3,4-dihydroxy-5-(hydroxymethyl)pyrrolidin-2-yl)-N-propylacetamide]	119	>2529	> 300	3720	–
CCNC(=O)C[C@@H]1[C@@H](O)[C@H](O)[C@@H](CO)N1CCC(c1ccccc1)c1ccccc1 [Compound A068, 2-((2R,3R,4R,5R)-1-(3,3-diphenylpropyl)-3,4-dihydroxy-5-(hydroxymethyl)pyrrolidin-2-yl)-N-ethylacetamide]	3.7	>65405	242	–	64
CCCNC(=O)C[C@H]1N[C@H](CO)[C@@H](O)[C@@H]1O [Compound A052, 2-((2R,3R,4R,5R)-3,4-dihydroxy-5-(hydroxymethyl)pyrrolidin-2-yl)-N-propylacetamide]	113	>2654	> 300	1070	–
CNC(=O)C[C@@H]1[C@H](O)[C@H](O)[C@@H](CO)N1CCc1ccccc1 [Compound A010, 2-((2R,3S,4R,5R)-3,4-dihydroxy-5-(hydroxymethyl)-1-phenethylpyrrolidin-2-yl)-N-methylacetamide]	9	3666	33	1540	–
CNC(=O)C[C@@H]1[C@H](O)[C@H](O)[C@@H](CO)N1CCCCCNS(=O)(=O)c1ccc(C)cc1 [Compound A064, 2-((2R,3S,4R,5R)-3,4-dihydroxy-5-(hydroxymethyl)-1-(5-(4-methylphenylsulfonamido)pentyl)pyrrolidin-2-yl)-N-methylacetamide]	< 3	>3366	10.1	127	–
CCCCCCCCCN1[C@H](CC(=O)NCCC)[C@H](O)[C@H](O)[C@H]1CO [Compound A008, 2-((2R,3S,4R,5R)-3,4-dihydroxy-5-(hydroxymethyl)-1-nonylpyrrolidin-2-yl)-N-propylacetamide]	12	>25000	> 300	–	55
CCCCCCN1[C@H](CO)[C@@H](O)[C@H](O)[C@H]1CC(=O)NCC [Compound A053, N-ethyl-2-((2R,3R,4R,5R)-1-hexyl-3,4-dihydroxy-5-(hydroxymethyl)pyrrolidin-2-yl)acetamide]	62.9	>4769	> 300	1410	–
CCNC(=O)C[C@H]1N[C@H](CO)[C@@H](O)[C@@H]1O [Compound A050, 2-((2R,3R,4R,5R)-3,4-dihydroxy-5-(hydroxymethyl)pyrrolidin-2-yl)-N-ethylacetamide]	412	>728	> 300	2720	–
CN(C)c1ccc(S(=O)(=O)NCCCCCCN2[C@H](CC(N)=O)[C@H](O)[C@H](O)[C@H]2CO)c2ccccc12 [Compound A015, 2-((2R,3S,4R,5R)-1-(6-(4-(dimethylamino)naphthalene-1-sulfonamido)hexyl)-3,4-dihydroxy-5-(hydroxymethyl)pyrrolidin-2-yl)acetamide]	< 3	>3666	11	80	–
CNC(=O)[C@H]1NC[C@@H](O)[C@@H]1O [Compound A043, (2S,3R,4R)-3,4-dihydroxy-N-methylpyrrolidine-2-carboxamide]	10200	1.37	14	–	–
CCCCCCN1[C@H](CO)[C@@H](O)[C@@H](O)[C@@H]1CC(=O)NC [Compound A034, 2-((2S,3S,4R,5R)-1-hexyl-3,4-dihydroxy-5-(hydroxymethyl)pyrrolidin-2-yl)-N-methylacetamide]	68000	>4.41	> 300	–	–
CNC(=O)C[C@@H]1[C@H](O)[C@H](O)[C@@H](CO)N1CCCC(C)C [Compound A018, 2-((2R,3S,4R,5R)-3,4-dihydroxy-5-(hydroxymethyl)-1-(4-methylpentyl)pyrrolidin-2-yl)-N-methylacetamide]	14	5000	69	931	–
CNC(=O)C[C@@H]1[C@H](O)[C@H](O)[C@@H](CO)N1CCCCCNS(=O)(=O)c1ccc(Oc2ccccc2)cc1 [Compound A067, 2-((2R,3S,4R,5R)-3,4-dihydroxy-5-(hydroxymethyl)-1-(5-(4-phenoxyphenylsulfonamido)pentyl)pyrrolidin-2-yl)-N-methylacetamide]	< 3	>5000	15	–	–
CNC(=O)C[C@H]1N[C@H](CO)[C@@H](O)[C@H]1O [Compound A007, 2-((2R,3S,4R,5R)-3,4-dihydroxy-5-(hydroxymethyl)pyrrolidin-2-yl)-N-methylacetamide]	102	>3000	> 300	4000	–
CCNC(=O)C[C@@H]1[C@@H](O)[C@H](O)[C@@H](CO)N1CCCc1ccc(Cl)cc1 [Compound A063, 2-((2R,3R,4R,5R)-1-(3-(4-chlorophenyl)propyl)-3,4-dihydroxy-5-(hydroxymethyl)pyrrolidin-2-yl)-N-ethylacetamide]	36	>8333	> 300	1010	–
CCCCCCN1[C@H](CC(=O)NCCC)[C@H](O)[C@H](O)[C@H]1CO [Compound A023, 2-((2R,3S,4R,5R)-1-hexyl-3,4-dihydroxy-5-(hydroxymethyl)pyrrolidin-2-yl)-N-propylacetamide]	48	>6211	> 300	–	–
